Values of other authors as cited in patent publication US20040171664A1, “Compositions of cyclooxygenase-2 selective inhibitors and selective serotonin reuptake inhibitors for the treatment or prevention of a vaso-occlusive event” (Pharmacia Corporation, priority 2002, published 2004).

Key:
[1] = tested on: coronary intimal proliferation; conditions: oral administration, swine model of restenosis
[2] = tested on: vascular smooth muscle cells; conditions: in vitro
[3] = both depressed and nondepressed patients
[4] = single dose intravenous pretreatment before coronary stenting
platelet activation = conditions: Pollock et al. 2000
restenosis = conditions: orally administered, stent implanted pig arteries

Structure (SMILES): CN(C)CCCO[C@@H]1[C@H]2OC(C)(C)O[C@H]2O[C@@H]1[C@H](O)CO.Cl [aniprilose hydrochloride]
- coronary intimal proliferation [1]: did not prevent

Structure (SMILES): COc1cc(/C=C/C(=O)CC(=O)/C=C/c2ccc(O)c(OC)c2)ccc1O [curcumin]
- proliferation of vascular smooth muscle cells [2]: reduced

Structure (SMILES): CNCCC(Oc1ccc(C(F)(F)F)cc1)c1ccccc1 (stereo not shown) [fluoxetine]
- survival of stroke patients [3]: increased the survival

Structure (SMILES): C[C@H]1C[C@@H]2[C@H]([C@@H](O)C[C@@]3(C)[C@H]2CC[C@]3(O)C(=O)CO)[C@@]2(C)C=CC(=O)C=C12 [methylpridnisolone]
- change in minimal lumen diameter at 6 months [4]: no effect

Structure (SMILES): CNCCC=C1c2ccccc2CCc2ccccc21 [nortriptyline]
- survival of stroke patients [3]: increased the survival

Structure (SMILES): CN[C@H]1CC[C@@H](c2ccc(Cl)c(Cl)c2)c2ccccc21 [sertraline]
- preventing platelet activation (platelet activation): particularly effective

Structure (SMILES): COc1ccc(C=CC(=O)Nc2ccccc2C(=O)O)cc1OC [tranilast, N-(3,4-dimethoxycinnamoyl) anthranilic acid]
- rate of restenosis (restenosis): lower rate
